Values of other authors in US20160324796A1, “COMPOSITIONS AND THEIR USE TO TREAT COMPLICATIONS OF ANEURYSMAL SUBARACHNOID HEMMORRHAGE” (Edge Therapeutics, Inc., priority 2007, published 2016).
Like-named read-outs stand apart in the source and are kept apart here. Ends that are not written are not given here.

How the values were obtained:
patients with SAH [1] = conditions: cited from earlier work
patients with SAH [2] = conditions: cited from earlier work; for patients with primary end point: placebo 27%; for patients with poor outcome (extended Glasgow Outcome Scale score </=4): placebo 24%
N-type calcium current = N-type calcium current (Homo sapiens, UniProt Q00975); conditions: at 300 nM to 500 nM; cited from earlier work
R-type calcium current = conditions: cited from earlier work
[3] = system: K+ and Na+ currents, and L, P/Q and T-type calcium currents; conditions: cited from earlier work

N-type calcium current, sequence (Q00975 whole entry): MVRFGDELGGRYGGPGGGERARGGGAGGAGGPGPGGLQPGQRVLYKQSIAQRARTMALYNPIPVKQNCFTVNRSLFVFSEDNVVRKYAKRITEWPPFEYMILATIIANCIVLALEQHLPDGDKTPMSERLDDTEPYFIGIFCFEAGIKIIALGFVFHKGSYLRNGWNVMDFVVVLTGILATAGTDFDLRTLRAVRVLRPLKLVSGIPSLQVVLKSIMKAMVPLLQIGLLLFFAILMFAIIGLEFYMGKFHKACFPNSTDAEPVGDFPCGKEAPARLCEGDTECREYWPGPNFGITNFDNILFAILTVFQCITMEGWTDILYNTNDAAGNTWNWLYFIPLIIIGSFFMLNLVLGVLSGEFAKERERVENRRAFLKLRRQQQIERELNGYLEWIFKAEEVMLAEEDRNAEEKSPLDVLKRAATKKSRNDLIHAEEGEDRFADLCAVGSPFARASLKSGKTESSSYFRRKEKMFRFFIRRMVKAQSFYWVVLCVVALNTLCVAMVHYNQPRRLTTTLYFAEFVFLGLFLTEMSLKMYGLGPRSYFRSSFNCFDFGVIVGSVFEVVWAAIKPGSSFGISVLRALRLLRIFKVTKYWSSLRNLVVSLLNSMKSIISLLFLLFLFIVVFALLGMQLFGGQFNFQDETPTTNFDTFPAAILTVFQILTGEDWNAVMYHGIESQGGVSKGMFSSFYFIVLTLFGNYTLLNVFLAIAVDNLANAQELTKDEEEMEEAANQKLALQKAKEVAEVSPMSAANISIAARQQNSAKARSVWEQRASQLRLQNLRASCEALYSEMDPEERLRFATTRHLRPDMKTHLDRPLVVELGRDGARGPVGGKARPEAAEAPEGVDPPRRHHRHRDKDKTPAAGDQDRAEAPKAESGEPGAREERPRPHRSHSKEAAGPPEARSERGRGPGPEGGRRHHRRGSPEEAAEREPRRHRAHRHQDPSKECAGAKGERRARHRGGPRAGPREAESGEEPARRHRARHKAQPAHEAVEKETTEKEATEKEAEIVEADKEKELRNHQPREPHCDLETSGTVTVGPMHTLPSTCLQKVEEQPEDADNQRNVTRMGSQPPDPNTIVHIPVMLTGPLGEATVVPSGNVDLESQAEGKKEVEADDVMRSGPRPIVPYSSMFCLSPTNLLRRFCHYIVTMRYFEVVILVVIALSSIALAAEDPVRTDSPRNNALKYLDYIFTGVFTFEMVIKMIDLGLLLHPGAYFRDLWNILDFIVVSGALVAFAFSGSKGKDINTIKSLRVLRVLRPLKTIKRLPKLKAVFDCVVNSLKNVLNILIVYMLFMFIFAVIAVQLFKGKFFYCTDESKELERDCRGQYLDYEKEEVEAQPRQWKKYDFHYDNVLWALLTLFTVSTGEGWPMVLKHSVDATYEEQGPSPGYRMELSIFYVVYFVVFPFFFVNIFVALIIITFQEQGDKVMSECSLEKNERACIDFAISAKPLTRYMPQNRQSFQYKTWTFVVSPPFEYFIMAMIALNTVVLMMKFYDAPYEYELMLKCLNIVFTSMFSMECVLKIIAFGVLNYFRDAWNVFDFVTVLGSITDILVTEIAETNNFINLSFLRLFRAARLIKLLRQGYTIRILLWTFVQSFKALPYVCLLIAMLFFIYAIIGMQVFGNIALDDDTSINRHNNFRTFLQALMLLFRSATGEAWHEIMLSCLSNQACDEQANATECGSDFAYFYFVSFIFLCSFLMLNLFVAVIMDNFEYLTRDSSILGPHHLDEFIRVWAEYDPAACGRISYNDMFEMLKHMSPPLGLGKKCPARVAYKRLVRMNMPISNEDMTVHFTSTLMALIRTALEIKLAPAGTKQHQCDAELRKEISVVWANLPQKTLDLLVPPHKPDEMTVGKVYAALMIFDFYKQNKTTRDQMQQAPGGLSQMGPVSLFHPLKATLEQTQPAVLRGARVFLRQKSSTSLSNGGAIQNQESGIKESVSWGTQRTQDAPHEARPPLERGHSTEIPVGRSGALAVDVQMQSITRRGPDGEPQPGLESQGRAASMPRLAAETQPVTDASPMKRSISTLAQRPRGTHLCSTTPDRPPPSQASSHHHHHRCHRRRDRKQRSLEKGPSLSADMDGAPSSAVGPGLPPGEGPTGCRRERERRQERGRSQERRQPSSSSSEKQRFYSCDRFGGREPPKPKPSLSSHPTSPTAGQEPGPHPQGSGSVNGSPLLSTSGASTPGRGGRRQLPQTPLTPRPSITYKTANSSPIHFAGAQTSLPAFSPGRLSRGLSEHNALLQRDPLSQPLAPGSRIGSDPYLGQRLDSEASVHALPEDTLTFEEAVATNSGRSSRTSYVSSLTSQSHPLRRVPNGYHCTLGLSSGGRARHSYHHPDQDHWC

Molecule	patients meeting primary composite endpoint (week 6) (patients with SAH [1]; 5 mg/h up to 14 days, 161 of 764 patients, placebo 25%)	relative risk reduction, primary composite endpoint (patients with SAH [1]; 5 mg/h versus placebo, 95% CI -4 to 33, p=0.10)	relative risk reduction, poor functional outcome (patients with SAH [1]; 5 mg/h versus placebo, −45 to 4, p=0.10)	patients with poor functional outcome (GOSE score </=4) (patients with SAH [1]; 5 mg/h, placebo 25%)	Mortality (week 12) (patients with SAH [1]; 5 mg/h, same in placebo)	odds ratio, primary end point (patients with SAH [2]; 5 mg/h versus placebo, 95% CI 0.479-1.289, P=0.340)	odds ratio, poor outcome (patients with SAH [2]; 5 mg/h versus placebo, 95% CI 0.546-1.544, P=0.748)	patients with primary end point (patients with SAH [2]; 5 mg/h, 47/194)	patients with poor outcome (extended Glasgow Outcome Scale score </=4) (patients with SAH [2]; 5 mg/h)	odds ratio, primary end point (patients with SAH [2]; 15 mg/h versus placebo, 95% CI 0.275-0.818, P=0.007)	odds ratio, poor outcome (patients with SAH [2]; 15 mg/h versus placebo, 95% CI 0.802-2.227, P=0.266)	patients with primary end point (patients with SAH [2]; 15 mg/h, 28/188)	patients with poor outcome (extended Glasgow Outcome Scale score </=4) (patients with SAH [2]; 15 mg/h)	block of N-type calcium current (N-type calcium current)	block of R-type calcium current (R-type calcium current; neurohypophysial nerve endings, 40 nM)	effect on R-type current (R-type calcium current; preparations of the neuronal cell body, retinal ganglion cells and hippocampal pyramidal cells)	effect on K+ and Na+ currents, and L, P/Q and T-type calcium currents [3]
COc1ccccc1Oc1c(NS(=O)(=O)c2ccc(C)cn2)nc(-c2ccnc(-c3nnn[nH]3)c2)nc1OCCO [clazosentan]	21%	17%	−18%	29%	6%	0.786	0.918	24%	25%	0.474	1.337	15%	28%				
SNX-482: toxin from the tarantula Hysterocrates gigas, a 41 amino acid residue peptide with 3 disulfide linkages; putative R-type selective blocker (GVDKAGCRYMFGGCSVNDDCCPRLGCHSLFSYCAWDLTFSD; disulfide (positions not given here); UniProt P56854 1-41, looked up)														30-50%	blocks	no significant effect	no effect
